Results as given in ChEMBL document CHEMBL1140025, “Antimicrobial activity of rationally designed amino terminal modified peptides” (Bioorg Med Chem Lett, 2007).
In brackets after ≈: the same amount, converted by molar mass. Where a SMILES comes first, the peptide text is derived from it. [ ]: non-standard residue; d: D form. The star is where a group is joined. Desaminotyrosyl = O=C(CCc1ccc(O)cc1)*; X1 = O=C(/C=C/c1ccc(O)cc1)*; Orn = NCCC[C@H](N)C(=O)O; X2 = O=C(/C=C/c1ccccc1)*

Assays:
[1] = system: Pseudomonas aeruginosa; assay: Antibacterial activity against Pseudomonas aeruginosa MTCCB 741; assay type: functional
[2] = system: Escherichia coli; assay: Antibacterial activity against Escherichia coli MTCCB 1610; assay type: functional
[3] = system: Staphylococcus aureus; assay: Antibacterial activity against Staphylococcus aureus MTCCB 96; assay type: functional
[4] = system: Bacillus subtilis; assay: Antibacterial activity against Bacillus subtilis NCIM 2063; assay type: functional
[5] = system: Escherichia coli; assay: Antibacterial activity against Escherichia coli
[6] = Toxicity against human red blood cells assessed as lysis upto 1000 ug/mL; assay type: cell-based, Erythrocyte; conditions: read-out: Activity

| Compound | MIC [1] | MIC [2] | MIC [3] | MIC [4] | MIC [5] | hemolysis [6] |
| --- | --- | --- | --- | --- | --- | --- |
| NCCC[C@H](NC(=O)/C=C/c1ccc(O)cc1)C(=O)N[C@@H](CCCN)C(=O)N[C@@H](Cc1ccccc1)C(=O)N[C@@H](Cc1ccccc1)C(N)=O (X1-[Orn][Orn]FF-NH2) | 2 µg/mL (≈ 2.92 µM) | 4 µg/mL (≈ 5.83 µM) | 32 µg/mL (≈ 46.7 µM) | 2 µg/mL (≈ 2.92 µM) | 8 µg/mL (≈ 11.7 µM) | 0% |
| NCCC[C@H](NC(=O)/C=C/c1ccc(O)cc1)C(=O)N[C@@H](CCCN)C(=O)N[C@@H](Cc1c[nH]c2ccccc12)C(=O)N[C@@H](Cc1c[nH]c2ccccc12)C(N)=O (X1-[Orn][Orn]WW-NH2) | 2 µg/mL (≈ 2.62 µM) | 16 µg/mL (≈ 20.9 µM) | 2 µg/mL (≈ 2.62 µM) | 1 µg/mL (≈ 1.31 µM) | 8 µg/mL (≈ 10.5 µM) | 0% |
| CN(C)[C@@H]1C(O)=C(C(N)=O)C(=O)[C@@]2(O)C(O)=C3C(=O)c4c(O)cccc4[C@@](C)(O)[C@H]3C[C@@H]12 [TETRACYCLINE] | 1 µg/mL (≈ 2.25 µM) | 0.5 µg/mL (≈ 1.13 µM) | 0.25 µg/mL (≈ 0.563 µM) | 0.125 µg/mL (≈ 0.281 µM) | 2 µg/mL (≈ 4.5 µM) | – |
| NCCC[C@H](NC(=O)/C=C/c1ccccc1)C(=O)N[C@@H](CCCN)C(=O)N[C@@H](Cc1c[nH]c2ccccc12)C(=O)N[C@@H](Cc1c[nH]c2ccccc12)C(N)=O (X2-[Orn][Orn]WW-NH2) | 16 µg/mL (≈ 21.4 µM) | 2 µg/mL (≈ 2.67 µM) | 2 µg/mL (≈ 2.67 µM) | 32 µg/mL (≈ 42.8 µM) | 4 µg/mL (≈ 5.35 µM) | 0% |
| NC(=O)[C@H](Cc1c[nH]c2ccccc12)NC(=O)[C@H](Cc1c[nH]c2ccccc12)NC(=O)/C=C/c1ccc(O)cc1 | < 512 µg/mL | < 512 µg/mL | 2 µg/mL (≈ 3.73 µM) | 1 µg/mL (≈ 1.87 µM) | < 512 µg/mL | 0% |
| NCCC[C@H](NC(=O)/C=C/c1ccc(O)cc1)C(=O)N[C@@H](CCCN)C(=O)N[C@@H](Cc1c[nH]c2ccccc12)C(=O)N[C@@H](Cc1c[nH]c2ccccc12)C(=O)O (X1-[Orn][Orn]WW-OH) | 64 µg/mL (≈ 83.7 µM) | 64 µg/mL (≈ 83.7 µM) | 128 µg/mL (≈ 167 µM) | 128 µg/mL (≈ 167 µM) | 128 µg/mL (≈ 167 µM) | 0% |
| CC(=O)N[C@@H](CCCN)C(=O)N[C@@H](CCCN)C(=O)N[C@@H](Cc1c[nH]c2ccccc12)C(=O)N[C@@H](Cc1c[nH]c2ccccc12)C(N)=O (Ac-[Orn][Orn]WW-NH2) | 128 µg/mL (≈ 194 µM) | 32 µg/mL (≈ 48.5 µM) | 2 µg/mL (≈ 3.03 µM) | 2 µg/mL (≈ 3.03 µM) | 128 µg/mL (≈ 194 µM) | 0% |
| NCCC[C@H](NC(=O)[C@@H](N)CCCN)C(=O)N[C@@H](Cc1c[nH]c2ccccc12)C(=O)N[C@@H](Cc1c[nH]c2ccccc12)C(N)=O (H-[Orn][Orn]WW-NH2) | 256 µg/mL (≈ 414 µM) | 512 µg/mL (≈ 829 µM) | 128 µg/mL (≈ 207 µM) | 512 µg/mL (≈ 829 µM) | 256 µg/mL (≈ 414 µM) | 0% |
| GENTAMICIN | 1 µg/mL | 0.25 µg/mL | 0.062 µg/mL | 0.03 µg/mL | – | – |
| NCCC[C@H](NC(=O)CCc1ccc(O)cc1)C(=O)N[C@@H](CCCN)C(=O)N[C@@H](Cc1c[nH]c2ccccc12)C(=O)N[C@@H](Cc1c[nH]c2ccccc12)C(N)=O (Desaminotyrosyl-[Orn][Orn]WW-NH2) | 32 µg/mL (≈ 41.8 µM) | 2 µg/mL (≈ 2.61 µM) | 1 µg/mL (≈ 1.31 µM) | 2 µg/mL (≈ 2.61 µM) | 4 µg/mL (≈ 5.22 µM) | 0% |
